Source: ChEMBL document CHEMBL4028849 (J Med Chem, 2017)

Test: Terminal half life in Sprague-Dawley rat at 1 mg/kg, iv
Assay type: ADME, organism-based
Settings: in vivo, read-out: beta t1/2 (converted)

Compound `COc1ccc2c(c1)NC(=O)CN2c1nc(C)nc2ccccc12` has a half-life of 52 h.

Test: n-Octanol-water partition co-efficient, log P of the compound at 1 mg/ml by HPLC analysis
Assay type: physicochemical
Settings: not given

Going from `COc1ccc2c(c1)NC(=O)CN2c1nc(N2CCC(F)(F)C2)nc2ccccc12` to `COc1ccc2c(c1)NC(=O)CN2c1nc(N2CC(F)(F)C2)nc2ccccc12`, the logP falls from 2.48 to 2.14.

First: CCCCNc1nc(N2CC(=O)Nc3cc(OC)ccc32)c2ccccc2n1
Second: COc1ccc2c(c1)NC(=O)CN2c1nc(NCCCO)nc2ccccc12
The logP of the first is higher: 3.91 for the first, 2.6 for the second.

Compared with `COc1ccc2c(c1)NC(=O)CN2c1nc(COC(C)=O)nc2ccccc12`, `COc1ccc2c(c1)NC(=O)CN2c1nc(CO)nc2ccccc12` is lower in logP: 2.7 for the first, 2.14 for the second.

Going from `CNc1nc(N2CC(=O)Nc3cc(OC)ccc32)c2ccccc2n1` to `CCNc1nc(N2CC(=O)Nc3cc(OC)ccc32)c2ccccc2n1`, the logP falls from 2.77 to 2.56.

`COc1ccc2c(c1)NC(=O)CN2c1nc(NC2CC2)nc2ccccc12` and `COc1ccc2c(c1)NC(=O)CN2c1nc(NC2CCCC2)nc2ccccc12` are within 0.2 log units of each other in logP: 2.26 for the first, 2.33 for the second.

Work on `COc1ccc2c(c1)NC(=O)CN2c1nc(Cl)nc2ccccc12` yielded a logP of 2.94.
